Source: US5608084A, “Lactones with antioxidising and hypolipidaemic activity useful in the therapy of the atherosclerosis” (priority 1994, dated 1997)
Like-named read-outs stand apart in the source and are kept apart here.

Key:
[1] = tested on: Watanabe rabbits, suffering from familial hypercholesterolaemia; conditions: cited from earlier work
[2] = tested on: LDL; experiment: Antioxidant activity: latency period of copper-induced LDL oxidation (TBARS method); format: biochemical, human; conditions: for Latency period: LDL oxidized with 5 μM cupric sulfate at 37° C.; for concentration giving a comparable prolongation of the latency period, relative to probucol (times lower): compared with probucol; for antioxidant activity compared with probucol: latency period
Source text: The determination of the melting point has been carried out by means of a capillary melting point apparatus Electrothermal, without any correction. The I.R. spectrum has been obtained by means of a Perkin-Elmer rood. 963/G spectrophotometer generally, when not otherwise specified, preparing the specimen in potassium bromide and recording the spectrum between […]. The ^1 H-NMR spectrum has been recorded at room temperature with a 200 MHz Varian Gemini spectrometer, in the solvents cited, by using tetramethylsilane as internal standard; the resonances of the signals have been expressed in p.p.m.. The ^13 C-NMR spectrum has been carried out at 50.3 MHz with a Varian Gemini 200 spectrometer by using tetramethylsilane as internal standard and as solvents those described in the experimental section. The mass spectrum has been recorded by using a VG 7070E mass spectrometer, at a 70 eV ionization voltage and with a 6 Kvolt acceleration voltage. The chromatographies on silica gel have been carried out by using 60 F254 silica gel ([…]--Merck) with the eluents cited in the examples, according to the method described by Clark Still W. et al. in J. Org. Chem., 43, 2923, (1978). The pharmacological activity of the lactones of formula I object of the present invention has been determined by means of a series of in vitro tests considered predictive of the antioxidant and hypolipidaemic properties. The antioxidant activity has been evaluated through the capability of some lactones of formula I to prevent and/or delay the oxidative modification of the lipoproteins (LDL), caused by a chemical method by incubating native LDL with cupric ions, according to the method described by Steinbrecher U. P. in J. Biol. Chem., 262, 3603-3608, (1987). The evaluation of the oxidation degree of the LDL through the monitoring of the concentration of aldehydes derived from the degradation of the lipidic peroxides and the observation of the modifications of the B-100 apolipoprotein represent the used experimental approach. The antioxidant activity of the lactones has been expressed in terms of duration of the latency period that represents a parameter of the resistance to the oxidation of the LDL. The LDL have been isolated from the human plasma obtained from blood collected, in the presence of EDTA, from healty volunteers fasting from 8 hours according to the method described by Havel H. in J. Clin. Invest., 34, 1345-1353, (1955). The solution, dialyzed in Visking-Serva dialysis tubes at 4° C. for 72 hours in phosphate buffer (PBS) added with EDTA (0.24 mM), has been filtered through a membrane with 0.45μ porosity (Millex HV Filters) and the proteic concentration has been determined according to the method described by Lowry O. et al. in J. Biol. Chem., 193, 265-275, (1951). The solution has been diluted with PBS-EDTA at a concentration of 500 μg protein/ml and the obtained LDL have been incubated at 42° C. for 45 minutes in presence of the lactones solubilized in ethanol (1.7 μl/ml LDL). At the end of the incubation the solutions have been placed on ice for 45 minutes and dialyzed at 4° C. for 36 hours in PBS. The oxidation of the LDL has been carried out with 5 μM cupric sulfate at 37° C. and stopped at the experimental times by cooling at 4° C. and adding 0.24 mM of EDTA. The solutions of LDL have been kept at 4° C. and sheltered from light during the experimental procedure. The oxidation degree of the LDL has been checked by spectrophotometric determination (λ=535 nm--Perkin Elmer spectrophotometer mod. Lambda 1) of the content of the aldehydes of degradation reactive to the thiobarbituric acid using as standard malondialdehyde (MDA), according to the TBARS method, described in Methods in Enzymology, vol. 52, (1978).
FIGS. 1A-1C show the results of spectrophotometric readings expressed as ng of MDA/mg LDL protein. […]

[3] = tested on: LDL; conditions: in vitro, LDL incubated with antioxidizer; cited from earlier work
[4] = tested on: HepG2; experiment: Incorporation of 14C-acetate in the lipidic classes in HepG2 cells (hypolipidaemic activity); format: cell-based, human; conditions: for Incorporation of 14C-acetate: Cholesterol / Incorporation of 14C-acetate: Esters of Cholesterol / Incorporation of 14C-acetate: Fatty acids / Incorporation of 14C-acetate: Phospholipids / Incorporation of 14C-acetate: Triglycerides: per culture plate; for inhibition at 1 µM / inhibition at 10 µM: Homo sapiens, HepG2; for activity as regards the synthesis of the esters of the cholesterol: summary of Table 4; for interference with the synthesis of cholesterol: compared with gemfibrozil and probucol; for influence on the synthesis of the fatty acids and of the phospholipids: compared with probucol and gemfibrozil
Procedure: The hypolipidaemic activity of some lactones of general formula I has been evaluated in vitro by testing their influence on the synthesis of the cell lipids like cholesterol, fatty acids, triglycerides, phospholipids and esters of the cholesterol, described by Barnhard J. W. in Amer. J. Cardiol., 62, 52B-56B, (1988).
The synthesis of the lipids has been studied by incubating cells coming from a human hepatocarcinoma (HepG2-American Type Culture Collection) in presence of ^14 C-acetate (Amersham) and by measuring the incorporation of the radioactive precursor in the main lipidic classes by means of chromatographic separation on silica gel (Merck F254), according to the method described by Skipski V. P. et al. in Biochem. Biophys. Acta, 106, 386-396, (1965) and by means of scintillographic dosage with β-counter Beckman scintillator, according to the method reported by Gherardi E. and Calandra S. in Lipids, 15, 108-112, (1980).
The data reported in tables 4 and 5 refer to the incorporation of ^14 C-acetate in the various lipidic classes, expressed as radioactivity in count per minute (cpm) for culture plate, for some lactones, in comparison with the probucol and the gemfibrozil, used as positive controls and with the solvent ethanol, used as negative control.
The percents in brackets express the lowering of the ^14 C-acetate in the various lipidic classes referred to the control, i.e. to the physiological solution. […] The confluence cells have been exposed to the products tested for 24 hours; at the end of the incubation the monolayer has been solubilized and the optical density of the lysate at λ260 nm has been measured. The value of the absorbance is direct function of the amount of the macromolecules present and therefore indirectly of the number of the cells.

[5] = 1 μM, read-out: Incorporation of 14C-acetate: Cholesterol, percent referred to physiological solution
[6] = 1 μM, read-out: Incorporation of 14C-acetate: Esters of Cholesterol, percent referred to physiological solution
[7] = 1 μM, read-out: Incorporation of 14C-acetate: Fatty acids, percent referred to physiological solution
[8] = 1 μM, read-out: Incorporation of 14C-acetate: Phospholipids, percent referred to physiological solution
[9] = 1 μM, read-out: Incorporation of 14C-acetate: Triglycerides, percent referred to physiological solution
[10] = 10 μM, read-out: Incorporation of 14C-acetate: Cholesterol, percent referred to physiological solution
[11] = 10 μM, read-out: Incorporation of 14C-acetate: Esters of Cholesterol, percent referred to physiological solution
[12] = 10 μM, read-out: Incorporation of 14C-acetate: Fatty acids, percent referred to physiological solution
[13] = 10 μM, read-out: Incorporation of 14C-acetate: Phospholipids, percent referred to physiological solution
[14] = 10 μM, read-out: Incorporation of 14C-acetate: Triglycerides, percent referred to physiological solution

Structure (SMILES)	Latency period ([2]; 10 μM) [min]	Incorporation of 14C-acetate: Cholesterol ([4]; 1 μM) [cpm]	Incorporation of 14C-acetate: Esters of Cholesterol ([4]; 1 μM) [cpm]	Incorporation of 14C-acetate: Fatty acids ([4]; 1 μM) [cpm]	Incorporation of 14C-acetate: Phospholipids ([4]; 1 μM) [cpm]	Incorporation of 14C-acetate: Triglycerides ([4]; 1 μM) [cpm]	Incorporation of 14C-acetate: Cholesterol ([4]; 10 μM) [cpm]	Incorporation of 14C-acetate: Esters of Cholesterol ([4]; 10 μM) [cpm]	Incorporation of 14C-acetate: Fatty acids ([4]; 10 μM) [cpm]	Incorporation of 14C-acetate: Phospholipids ([4]; 10 μM) [cpm]	Incorporation of 14C-acetate: Triglycerides ([4]; 10 μM) [cpm]	inhibition at 1 µM [4, 5] [%]	inhibition at 1 µM [4, 6] [%]	inhibition at 1 µM [4, 7] [%]	inhibition at 1 µM [4, 8] [%]	inhibition at 1 µM [4, 9] [%]	inhibition at 10 µM [4, 10] [%]	inhibition at 10 µM [4, 11] [%]	inhibition at 10 µM [4, 12] [%]	inhibition at 10 µM [4, 13] [%]	also measured
CC(C)(Sc1cc(C(C)(C)C)c(O)c(C(C)(C)C)c1)Sc1cc(C(C)(C)C)c(O)c(C(C)(C)C)c1 [Probucol, reference compound]	82	14360	1887	429	173426	100202	11389	2635	394	173329	105097	55	54	36	31	8	64	35	42	31	LDL plasma levels [1]: does not substantially modify the LDL plasma levels; atheromatous lesions [1]: lowers the atheromatous lesions; atherogenic potentialities of the LDL [3]: remarkably lowered; inhibition at 10 µM [4, 14]: 3%; activity as regards the synthesis of the esters of the cholesterol [4]: 35-45%
CCC1CCc2c(C)c(O)c(C)c(C)c2OCCCC(C)(C)C(=O)O1 (centres unmarked) [Example 6, 9-Ethyl-14-hydroxy-6,6,13,15,16-pentamethyl-2,8-dioxabicyclo[10.4.0]hexadec-12,14,16-trien-7-one]	> 180	23597	1098	386	160997	107497	17458	1148	332	177323	110154	25	73	42	35	1	45	72	50	29	Latency period ([2]; 1 μM): 95 min; Latency period ([2]; 5 μM): > 180 min; concentration giving a comparable prolongation of the latency period, relative to probucol (times lower) [2]: 10 times; antioxidant activity compared with probucol [2]: far higher than that of probucol; influence on the synthesis of the triglycerides [4]: practically absent; inhibition at 10 µM [4, 14]: -1%; interference with the synthesis of cholesterol [4]: comparable to that of gemfibrozil and lower than that of the probucol; influence on the synthesis of the fatty acids and of the phospholipids [4]: practically show the same influence; activity as regards the synthesis of the esters of the cholesterol [4]: 60-75%
Cc1c(C)c2c(c(C)c1O)CCC(C)OC(=O)C(C)(C)CCCO2 (centres unmarked) [Example 3, 6,6,9,13,15,16-Hexamethyl-14-hydroxy-2,8-dioxabicyclo[10.4.0]hexadec-12,14,16-trien-7-one]	> 180	23364	1347	473	181053	109681	19034	1107	368	195274	104271	26	67	29	27	1	40	73	45	22	Latency period ([2]; 1 μM): 73 min; Latency period ([2]; 5 μM): 120 min; concentration giving a comparable prolongation of the latency period, relative to probucol (times lower) [2]: 10 times; antioxidant activity compared with probucol [2]: far higher than that of probucol; influence on the synthesis of the triglycerides [4]: practically absent; inhibition at 10 µM [4, 14]: 4%; interference with the synthesis of cholesterol [4]: comparable to that of gemfibrozil and lower than that of the probucol; influence on the synthesis of the fatty acids and of the phospholipids [4]: practically show the same influence; activity as regards the synthesis of the esters of the cholesterol [4]: 60-75%
